Article PMC7179450, “Primary Human Hepatocytes, But not HepG2 or Balb/c 3T3 Cells, Efficiently Metabolize Salinomycin and Are Resistant to Its Cytotoxicity” (Molecules, 2020)
Where two headings read alike, the source gives them in different places.

What was measured:
HepG2 cells = assay: TPC assay in HepG2; assay type: cell-based, human; settings: for EC50: Homo sapiens, read-out: EC50 (effective concentration)
Protocol: The HepG2 cell line was purchased from the American Type Culture Collection (ATCC® HB-8065™). The cells were cultured in Minimum Essential Medium Eagle (MEME) (Sigma–Aldrich Co. (St. Louis, MO, USA)). Normal murine embryonic fibroblasts, Balb/c 3T3 clone A31 cell line (gift from Department of Swine Diseases of the National Veterinary Research Institute in Pulawy) was cultured in Dulbecco’s Modified Eagle’s Medium (DMEM) (Invitrogen Corporations (Paisley, UK)). The media were supplemented with 10% BCS (Balb/c 3T3), 10% FBS (HepG2), 1% L-glutamine, and 1% antibiotic solution. The cells were maintained in 75 cm^2 cell culture flasks in humidified incubator at 37 °C, in an atmosphere of 5% CO2. The medium was refreshed every two or three days and the cells were trypsinized by 0.25% trypsin–0.02% EDTA after reaching 70–80% confluence. The initial cell viability was determined with the trypan blue exclusion test. Single cell suspensions were prepared and adjusted to a density of 2 × 10^5 cell/mL (HepG2) and 1 × 10^5 cell/mL (Balb/c 3T3). The cell suspension was transferred to 96-well plates (100 µL/well) and incubated for 24 h before exposure to the studied drugs.
The concentration ranges of the drugs were chosen according to their solubility and their plasma level. Each drug was dissolved in DMSO. The final concentration of DMSO was 0.1% or 0.2% in the medium for both samples and corresponding controls. […] All drug solutions in medium were freshly prepared and protected from light. SAL was tested in seven concentrations from 0.39 to 25 µg/mL. Tiamulin was added in two concentrations (1 and 10 µg/mL) or just one concentration (1 µg/mL) to cell lines or human hepatocytes, respectively. […] The cytotoxicity was assessed after 24 and 48 h of exposure of cell lines or after 12 and 24 h exposure of PHH. […]
The assay was based on staining total cellular protein [14]. […] The absorbance was measured at 595 nm in a microplate reader using blank as a reference. Cytotoxicity was expressed as a percentage of the negative control (0.1% or 0.2% DMSO).

[1] = test system: primary human hepatocytes (PHH); assay: Biotransformation of SAL and metabolites in medium of PHH (LC-MS/MS); assay type: in vitro ADME
Protocol: Cryopreserved PHH were purchased from the Primacyt GmbH (Schwerin, Germany). Two different lots were chosen based on CYP activity. The donor was a person. The post-thaw viability was 94.6% for lot HH160531 (used in two repetitions) and 85.0% for lot HH130805. The initial cell viability was determined with the trypan blue exclusion test. The cells were thawed and purified using the Plating and Thawing Kit (Primacyt GmbH). Purified hepatocytes were resuspended in Hepatocyte Plating Medium (Primacyt GmbH) and seeded on collagen-coated 96-well plates at a density of 9 × 10^5 cell/mL and incubated at 37 °C with 5% CO2. After 6 h of incubation, the medium was removed and the cells were washed with PBS. […]
The medium samples from microplate wells were collected for identifying SAL metabolites and normalized to a cell number. An aliquot of 200 µL of each sample was measured to Eppendorf tube. […] The dry residue was reconstituted in 50% acetonitrile and analyzed with LC-MS/MS. […]
SAL (m/z 773.4 to m/z 431.3) was monitored in multiple reaction monitoring (MRM) modes. […]
The signals for further analysis were selected with the LightSight 2.3 software. […] These MRM transitions (with 20 chromatographic peaks) were then quantified with Multiquant 2.1. software. Quantitative analysis was performed for SAL. […]

turkeys = settings: cited from earlier work
horses = settings: cited from earlier work
[2] = mouse, in vivo; cited from earlier work

CC[C@@H](C(=O)[C@@H](C)[C@@H](O)[C@H](C)[C@@H]1O[C@@H]([C@@H](CC)C(=O)O)CC[C@@H]1C)[C@H]1O[C@]2(C=C[C@@H](O)[C@]3(CC[C@@](C)([C@H]4CC[C@](O)(CC)[C@H](C)O4)O3)O2)[C@H](C)C[C@@H]1C [SAL, salinomycin]
lowest concentration with significant effect on total protein content (HepG2 cells; HepG2, 24 h, SAL alone or in both drug combinations (Figure S2)): 0.39 µg/mL
EC50 (HepG2 cells; HepG2, 24 h): 13.3 ± 2.5 µg/mL
EC50 (HepG2 cells; HepG2, 48 h): 11.3 ± 1.3 µg/mL
SAL metabolised, share of the dose ([1]; PHH): up to 90%
maximum percentage of bio-transformed SAL ([1]; PHH co-exposed with tiamulin): 25%
LD50 (turkeys): 0.6 mg/kg b.w.
LD50 (horses): 0.6 mg/kg b.w.
unchanged SAL in excreta, share of administered dose [2]: 2%
